We go through four compounds from patent EP0354047A2, “Herbicidal method using atrazine” (MAY & BAKER LIMITED, priority 1988, dated 1990).

A word on the inhibition: it is the share of the control response that was lost under treatment. Higher therefore signals strong suppression. For orientation: % inhibition of growth means the percentage by which the read-out fell short of the control. A high value points to a response far below the control.

Common to all, as to format: in vivo
Assay [1] relates to Digitaria horizontalis (DIGHO). Nature of the assay: Experiment 1: field experiment, post-emergence spray, % control 29 days after application. The method, then:
(§1) Duplicate 12m² plots were sprayed post-emergence with 250g or 500g/ha Compound 1 (in a composition according to Example 1 as described hereinafter) or 1500g/ha atrazine (in a commercial aqueous suspension concentrate formulation containing 500g/l w/v atrazine or a combination (as a tank mix) of the two herbicides in a volume of 300 litres/ha. The following control figures were recorded on the grass weeds Brachiaria plantaginea (BRAPL), Digitaria horizontalis (DIGHO) and Eleusine indica (ELEIN) 29 days after application.

The subject of assay [2] is Eleusine indica (ELEIN). The assay is described as above. As for the experimental part: as §1
The subject of assay [3] is Brachiaria plantaginea (BRAPL). The assay is described as above. As for the experimental part: as §1
Assay [4] deals with Amaranthus retroflexus. Nature of the assay: Experiment 3: glasshouse, post-emergence, fresh weight after 19 days, % inhibition of growth. The settings on record: 2 leaves; for inhibition at 2 g/ha / inhibition at 4 g/ha / inhibition at 8 g/ha / inhibition at 16 g/ha / inhibition at 31 g/ha / inhibition at 63 g/ha: Amaranthus retroflexus, post-emergence. The method, then:
(§2) A series of experiments was carried out to determine the nature of the biological interaction between atrazine and five compounds of general formula I on a range of weed species. […] The growth stages of the plants at spraying are also presented with the results. Agricultural surfactant (nonyl phenol ethylene oxide condensate containing 9 moles ethylene oxide marketed as 'Agral') was added to all spray dilutions to give 0.2% v/v concentration. […] After 19 days the fresh weight of vegetation in each pot was determined. […] E = […]00003:character} where E, X and Y are percentage inhibition of growth. In addition, the ED50 or ED90 values (the application rates giving 50% or 90% inhibition of growth, respectively) were calculated from the results for the piperidinedione alone and with increasing rates of atrazine.

In assay [5] the test system is Brassica kaber. Nature of the assay: Experiment 4: glasshouse, pre-emergence, fresh weight after 27 days, % inhibition of growth. The settings on record: for % inhibition of growth: Atrazine 0 g/ha. As for the experimental part: (§3) Glasshouse experiments showing the biological interaction between atrazine and Compound 99 on weed species when applied pre-emergence. […] After 27 days the fresh weight of vegetation in each pot was determined. […] E = […]00005:character} where E, X and Y are percentage inhibition of growth. In addition the ED90 values (the application rate giving 90% inhibition of growth) were calculated from the results for Compound 99 alone and with increasing rates of atrazine. The ED90 values were then used to plot an isobole for each species according to the method of […] op cit. The results of percentage inhibition of growth, the ED values calculated from them and the calculated expected values are given in Table 8.

The test system of assay [6] is Sida spinosa. The assay is described as above. The settings on record: for % inhibition of growth: Atrazine 0 g/ha. The method, then:
as §3

Assay [7] deals with Brassica kaber. Nature of the assay: Experiment 3: glasshouse, post-emergence, fresh weight after 19 days, % inhibition of growth. The settings on record: 2 leaves; for inhibition at 2 g/ha / inhibition at 4 g/ha / inhibition at 8 g/ha / inhibition at 16 g/ha / inhibition at 31 g/ha / inhibition at 63 g/ha: Mutarda arvensis, post-emergence. As for the experimental part: as §2
Assay [8] has as its system Solanum nigrum. The description is as above. The settings on record: for inhibition at 2 g/ha / inhibition at 4 g/ha / inhibition at 8 g/ha / inhibition at 16 g/ha / inhibition at 31 g/ha / inhibition at 63 g/ha: Solanum nigrum, post-emergence. As for the experimental part: as §2

On to `CC1(C)CC(=O)C(C(=O)c2ccc(Cl)cc2[N+](=O)[O-])C(=O)N1` (stereo not drawn) [Compound 1, 3-(4-chloro-2-nitrobenzoyl)-6,6-dimethylpiperidine-2,4-dione], for which the “% control observed” value in assay [1] (Compound 1 @ 250g/ha) was 70%; in assay [1] (Compound 1 @ 500g/ha), 80%; in assay [2] (Compound 1 @ 250g/ha), 70%; in assay [2] (Compound 1 @ 500g/ha), 80%; in assay [3] (Compound 1 @ 250g/ha) it was 60%; in assay [3] (Compound 1 @ 500g/ha), 80%. In assay [4] (Compound 1 2 g/ha alone), this compound registered an inhibition at 2 g/ha of 25%. The inhibition at 4 g/ha in assay [4] (Compound 1 4 g/ha alone) stood at 52%. Further, in assay [4] (Compound 1 8 g/ha alone), the inhibition at 8 g/ha turned out to be 73%. In assay [4] (Compound 1 16 g/ha alone), the inhibition at 16 g/ha amounted to 87%. Besides, the inhibition at 31 g/ha in assay [4] (Compound 1 31 g/ha alone) worked out at 95%. Further, in assay [4] (Compound 1 63 g/ha alone), the inhibition at 63 g/ha was determined as 96%. In assay [4] (Compound 1 alone), the ED₉₀ result is “ED₉₀(g/ha) 22.58”.
For `CC1(C)CC(=O)C(C(=O)c2ccc(C(F)(F)F)cc2[N+](=O)[O-])C(=O)N1` (stereo not drawn) [Compound 99, 3-(2-nitro-4-trifluoromethylbenzoyl)-6,6-dimethylpiperidine-2,4-dione], the “% inhibition of growth” value was 0% in assay [5] (Compound 99 8 g/ha); 9% in assay [5] (Compound 99 16 g/ha); 10% in assay [5] (Compound 99 31 g/ha); 32% in assay [5] (Compound 99 63 g/ha); 20% in assay [5] (Compound 99 125 g/ha); 90% in assay [5] (Compound 99 250 g/ha). For the same compound, the “% inhibition of growth” value in assay [6] (Compound 99 8 g/ha) turned out to be 0%; in assay [6] (Compound 99 16 g/ha), 17%; in assay [6] (Compound 99 31 g/ha) it was 26%; in assay [6] (Compound 99 63 g/ha), 52%; in assay [6] (Compound 99 125 g/ha) it was 88%; in assay [6] (Compound 99 250 g/ha) it was 97%. Further, the ED₉₀ result in assay [5] (Compound 99 alone) is “ED₉₀(g/ha) 340.34”; in assay [6] (Compound 99 alone), “ED₉₀(g/ha) 146.26”; in assay [7] (Compound 99 alone) it was “ED₉₀(g/ha) 31”; in assay [4] (Compound 99 alone), “ED₉₀(g/ha) 14”. In addition, the inhibition at 2 g/ha stood at 22% in assay [7] (Compound 99 2 g/ha alone) and 37% in assay [4] (Compound 99 2 g/ha alone). Also, the inhibition at 4 g/ha came out at 40% in assay [7] (Compound 99 4 g/ha alone) and 85% in assay [4] (Compound 99 4 g/ha alone). The inhibition at 8 g/ha in assay [7] (Compound 99 8 g/ha alone) amounted to 69%; in assay [4] (Compound 99 8 g/ha alone), 88%. In addition, the inhibition at 16 g/ha worked out at 58% in assay [7] (Compound 99 16 g/ha alone) and 80% in assay [4] (Compound 99 16 g/ha alone). For the same compound, the inhibition at 31 g/ha in assay [7] (Compound 99 31 g/ha alone) and in assay [4] (Compound 99 31 g/ha alone) was 91% each time. Also, the results for the inhibition at 63 g/ha in assay [7] (Compound 99 63 g/ha alone) and in assay [4] (Compound 99 63 g/ha alone) were 91% and 98%, respectively.
For `CS(=O)(=O)c1ccc(C(=O)C2C(=O)CCNC2=O)c([N+](=O)[O-])c1` (stereo not drawn) [Compound 110, 3-(4-methylsulphonyl-2-nitrobenzoyl)piperidine-2,4-dione], the ED₉₀ entry in assay [7] (Compound 110 alone) is on record as “ED₉₀(g/ha) 6.38”; in assay [8] (Compound 110 alone, 1 leaf), “ED₉₀(g/ha) 5.87”. The inhibition at 2 g/ha in assay [7] (Compound 110 2 g/ha alone) stood at 45%; in assay [8] (Compound 110 2 g/ha alone, 1 leaf), 38%. Besides, the inhibition at 4 g/ha in assay [7] (Compound 110 4 g/ha alone) worked out at 84%; in assay [8] (Compound 110 4 g/ha alone, 1 leaf) it was 80%. For the same compound, the inhibition at 8 g/ha stood at 98% in assay [7] (Compound 110 8 g/ha alone) and 98% in assay [8] (Compound 110 8 g/ha alone, 1 leaf). Moreover, the inhibition at 16 g/ha in assay [7] (Compound 110 16 g/ha alone) amounted to 99%; in assay [8] (Compound 110 16 g/ha alone, 1 leaf), 100%. Also, the inhibition at 31 g/ha in assay [7] (Compound 110 31 g/ha alone) was 100%; in assay [8] (Compound 110 31 g/ha alone, 1 leaf), 100%. The inhibition at 63 g/ha in assay [7] (Compound 110 63 g/ha alone) is 100%; in assay [8] (Compound 110 63 g/ha alone, 1 leaf) it was 100%.
`CS(=O)(=O)c1ccc(C(=O)C2C(=O)CCNC2=O)c(Cl)c1` (stereo not drawn) [Compound 126, 3-(2-chloro-4-methylsulphonylbenzoyl)piperidine-2,4-dione]: the ED₅₀ entry in assay [7] (Compound 126 alone) is listed as “ED₅₀(g/ha) 28.09”. In addition, the inhibition at 2 g/ha in assay [7] (Compound 126 2 g/ha alone) came out at 0%; in assay [8] (Compound 126 2 g/ha alone, 2 leaves), 72%. Also, the inhibition at 4 g/ha in assay [7] (Compound 126 4 g/ha alone) came out at 0%; in assay [8] (Compound 126 4 g/ha alone, 2 leaves) it was 90%. Besides, the inhibition at 8 g/ha in assay [7] (Compound 126 8 g/ha alone) was found to be 0%; in assay [8] (Compound 126 8 g/ha alone, 2 leaves), 97%. Also, the inhibition at 16 g/ha in assay [7] (Compound 126 16 g/ha alone) worked out at 42%; in assay [8] (Compound 126 16 g/ha alone, 2 leaves) it was 100%. For the same compound, the inhibition at 31 g/ha in assay [7] (Compound 126 31 g/ha alone) was found to be 69%; in assay [8] (Compound 126 31 g/ha alone, 2 leaves), 100%. Further, the inhibition at 63 g/ha in assay [7] (Compound 126 63 g/ha alone) came to 66%; in assay [8] (Compound 126 63 g/ha alone, 2 leaves) it was 100%. The ED₉₀ entry in assay [8] (Compound 126 alone, 2 leaves) is “ED₉₀(g/ha)4.18”.
